From patent US8507493B2 (AbbVie Inc., priority 2009, dated 2013)

Tested on: patients
Assay: not given
Details: treatment for 4 days; cited from earlier work

Row | Compound | lowered intraocular pressure
1 | CC1(C)[C@@H](OC(=O)CCC(=O)O)CC[C@]2(C)[C@H]3C(=O)C=C4[C@@H]5C[C@@](C)(C(=O)O)CC[C@]5(C)CC[C@@]4(C)[C@]3(C)CC[C@@H]12 [carbenoxolone] | 10%

Same assay, conditions: treatment for 7 days; cited from earlier work

Row | Compound | lowered intraocular pressure
2 | CC1(C)[C@@H](OC(=O)CCC(=O)O)CC[C@]2(C)[C@H]3C(=O)C=C4[C@@H]5C[C@@](C)(C(=O)O)CC[C@]5(C)CC[C@@]4(C)[C@]3(C)CC[C@@H]12 [carbenoxolone] | 17%

Biological target: T1, human 11β-HSD1 (Homo sapiens, UniProt P28845)
T1 construct: truncated (24-287aa) human 11β-HSD1 enzyme; made in house; host or cells: E. coli (lysate, not purified)
Assay: Human 11β-HSD1 enzymatic SPA assay
Format: biochemical
Details: truncated (24-287aa) human 11β-HSD1, apparent Ki from IC50 by Cheng-Prusoff
Description: The ability of test compounds to inhibit human 11β-HSD1 enzymatic activity in vitro was evaluated in a Scintillation Proximity Assay (SPA). Tritiated-cortisone substrate, NADPH cofactor and titrated compound were incubated with truncated (24-287aa) human 11β-HSD1 enzyme at room temperature to allow the conversion to cortisol to occur. The reaction was stopped by adding a non-specific 11β-HSD inhibitor, glycyrrhetinic acid. The tritiated cortisol was captured by a mixture of an anti-cortisol monoclonal antibody and SPA beads coated with anti-mouse antibodies. The reaction plate was shaken at room temperature and the radiolabel bound to SPA beads was then measured on a scintillation counter. The 11β-HSD1 assay was carried out in 96-well microtiter plates in a total volume of […]. To start the assay, 188 μL of master mix which contained 75 nM ^3H-cortisone, 100 nM cortisone and 181 μM NADPH was added to the wells. In order to drive the reaction in the 11β-reductase direction, 1 mM glucose-6-phosphate (G-6-P) and 1 U/mL G-6-P dehydrogenase were also added as a NADPH generating system. Solid compound was dissolved in dimethyl sulfoxide to make a 10 mM stock followed by a subsequent 10-fold serial dilution with dimethyl sulfoxide. Each compound solution in dimethyl sulfoxide was 10-fold diluted in Tris/EDTA buffer (pH 7.4). 22 μL of titrated compound were then added in duplicate to the substrate. Reactions were initiated by the addition of 10 μL of 0.1 mg/mL E. coli lysates overexpressing 11β-HSD1 enzyme. After shaking and incubating plates for 30 minutes at room temperature, reactions were stopped by adding 10 μL of 1 mM glycyrrhetinic acid. The product, tritiated cortisol, was captured by adding 10 μL of 1 μM monoclonal mouse anti-cortisol antibodies and 50 μL of SPA beads coated with anti-mouse antibodies. After shaking for 30 minutes, plates were read in a Microbeta scintillation counter. Percent inhibition was calculated based on the background and the maximal signal. Wells that contained substrate without compound or enzyme were used as the background, while the wells that contained substrate and enzyme without any compound were considered as maximal signal. Percent of inhibition of each compound was calculated relative to the maximal signal and IC50 curves were generated. Assuming competitive inhibition the Cheng-Prusoff equation was used to calculate apparent Ki values from the IC50 values. This assay was applied to 11β-HSD2 as well, whereby 6 nM tritiated cortisol and 250 uM NAD^+ were used as substrate and cofactor, respectively.

T1 sequence (P28845 24-287): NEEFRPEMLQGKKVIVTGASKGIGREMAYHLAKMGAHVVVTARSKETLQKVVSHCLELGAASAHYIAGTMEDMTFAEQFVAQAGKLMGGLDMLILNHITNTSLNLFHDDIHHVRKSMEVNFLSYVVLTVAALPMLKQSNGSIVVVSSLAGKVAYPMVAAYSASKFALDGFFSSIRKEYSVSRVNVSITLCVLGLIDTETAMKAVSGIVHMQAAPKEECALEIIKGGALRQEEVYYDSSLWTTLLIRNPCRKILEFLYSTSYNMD

Row | Compound | Ki
3 | CC(C)(Oc1ccc(Cl)cn1)C(=NC#N)NC1C2CC3CC1CC(S(N)(=O)=O)(C3)C2 (stereo not shown) [Example 68, (1E)-2-[(5-chloropyridin-2-yl)oxy]-N-cyano-2-methyl-N-[(E)-5-sulfamoyladamantan-2-yl]propanimidamide] | > 1000 nM
4 | CC(C)(Oc1ccc(Cl)cc1F)/C(=N\C#N)NC1CN2CCC1CC2 (stereo not shown) [Example 72, (1E)-N-(1-azabicyclo[2.2.2]oct-3-yl)-2-(4-chloro-2-fluorophenoxy)-N′-cyano-2-methylpropanimidamide] | > 1000 nM
5 | CC(C)(Oc1ccc(Cl)cc1F)C(=NC#N)NC12CC3CC(CC1C3)C2 [Example 73, 2-(4-chloro-2-fluorophenoxy)-Y-cyano-N-(hexahydro-2,5-methanopentalen-3a(1H)-yl)-2-methylpropanimidamide] | 100 to 1000 nM
6 | [H]/N=C(/NC1C2CC3CC1CC(C(N)=O)(C3)C2)C(C)(C)Oc1ccccc1 (stereo not shown) [Example 76, (E)-4-[(2-methyl-2-phenoxypropanimidoyl)amino]adamantane-1-carboxamide] | > 1000 nM
7 | CC(C)(Oc1ccccn1)/C(=N\C#N)NC1C2CC3CC1CC(S(C)(=O)=O)(C3)C2 (stereo not shown) [Example 77, (1E)-N′-cyano-2-methyl-N-[(E)-5-(methylsulfonyl)adamantan-2-yl]-2-(pyridin-2-yloxy)propanimidamide] | 100 to 1000 nM
8 | CC(C)(Oc1ccccc1)C(=NC#N)NC12CCC(C(N)=O)(CC1)C2 [Example 81, 4-{[N-cyano-2-methyl-2-phenoxypropanimidoyl]amino}bicyclo[2.2.1]heptane-1-carboxamide] | > 1000 nM
9 | CC(C)(Oc1ccccc1)C(=NC#N)NC12CCC(C#N)(CC1)C2 [Example 83, N′-cyano-N-(4-cyanobicyclo[2.2.1]hept-1-yl)-2-methyl-2-phenoxypropanimidamide] | 100 to 1000 nM
10 | CC(C)(Oc1ccccc1)C(=NC#N)NC12CCC(C#N)(CC1)CC2 [Example 84, N′-cyano-N-(4-cyanobicyclo[2.2.2]oct-1-yl)-2-methyl-2-phenoxypropanimidamide] | 100 to 1000 nM
11 | CC(C)(Oc1ccc(Cl)cc1)C(=NC#N)NC12CCC(C(F)F)(CC1)CC2 [Example 85, 2-(4-chlorophenoxy)-N′-cyano-N-[4-(difluoromethyl)bicyclo[2.2.2]oct-1-yl]-2-methylpropanimidamide] | 100 to 1000 nM
12 | CC(C)(Oc1ccccc1)C(=NC#N)NC12CCC(C(=O)O)(CC1)CC2 [Example 87, 4-{[N-cyano-2-methyl-2-phenoxypropanimidoyl]amino}bicyclo[2.2.2]octane-1-carboxylic acid] | > 1000 nM
13 | CC(C)(Oc1ccc(Cl)cc1)C(=NC#N)NC12CCC(C(N)=O)(CC1)C2 [Example 88, 4-{[2-(4-chlorophenoxy)-N-cyano-2-methylpropanimidoyl]amino}bicyclo[2.2.1]heptane-1-carboxamide] | 100 to 1000 nM
14 | CC(C)(Oc1ccccc1)C(=NC#N)NC12CCC(C(F)F)(CC1)C2 [Example 89, N′-cyano-N-[4-(difluoromethyl)bicyclo[2.2.1]hept-1-yl]-2-methyl-2-phenoxypropanimidamide] | 10 to 100 nM
15 | COc1ccc(Cl)cc1C(=NC#N)N[C@@H]1[C@@H]2C[C@@H]3C[C@H]1C[C@@](O)(C3)C2 [Example 93, 5-chloro-N′-cyano-N-[(E)-5-hydroxyadamantan-2-yl]-2-methoxybenzenecarboximidamide] | > 1000 nM
16 | (1E)-N-(adamantan-1-yl)-N-cyano-2-(2,4-difluorophenoxy)-2-methylpropanimidamide [Example 71] | 10 to 100 nM

The next lines start with the values.

Row | Ki | Compound
17 | 10 to 100 nM | CC(C)(Oc1ccc(F)cc1F)C(=NC#N)NC12CC3CC(CC1C3)C2 [Example 69]
18 | ≤ 10 nM | CC(C)(Oc1ccc(F)cc1F)C(=NC#N)NC1C2CC3CC1CC(C(N)=O)(C3)C2 (stereo not shown) [Example 70, (E)-4-{[(1E)-N-cyano-2-(2,4-difluorophenoxy)-2-methylpropanimidoyl]amino}adamantane-1-carboxamide]
19 | ≤ 10 nM | CC(C)(Oc1ccc(Cl)cc1F)/C(=N\C#N)NC1C2CC3CC1CC(C(N)=O)(C3)C2 (stereo not shown) [Example 74, (E)-4-{[(1E)-2-(4-chloro-2-fluorophenoxy)-N-cyano-2-methylpropanimidoyl]amino}adamantane-1-carboxamide]
20 | 10 to 100 nM | CC(C)(Oc1ccc(Cl)cn1)C(=NC#N)NC1C2CC3CC1CC(C(N)=O)(C3)C2 (stereo not shown) [Example 75, (E)-4-({(1E)-2-[(5-chloropyridin-2-yl)oxy]-N-cyano-2-methylpropanimidoyl}amino)adamantane-1-carboxamide]
21 | 10 to 100 nM | CC(C)(Oc1ccccc1F)/C(=N\C#N)NC1C2CC3CC1CC(C#N)(C3)C2 (stereo not shown) [Example 78, (1E)-N′-cyano-N-[(E)-5-cyanoadamantan-2-yl]-2-(2-fluorophenoxy)-2-methylpropanimidamide]
22 | 10 to 100 nM | CC(C)(Oc1ccccc1F)C(=NC#N)NC1C2CC3CC1CC(S(N)(=O)=O)(C3)C2 (stereo not shown) [Example 79, (1E)-N′-cyano-2-(2-fluorophenoxy)-2-methyl-N-[(E)-5-sulfamoyladamantan-2-yl]propanimidamide]
23 | ≤ 10 nM | CC(C)(Oc1ccccc1F)C(=NC#N)NC1C2CC3CC1CC(O)(C3)C2 (stereo not shown) [Example 80, (1E)-N′-cyano-2-(2-fluorophenoxy)-N-[(E)-5-hydroxyadamantan-2-yl]-2-methylpropanimidamide]
24 | 10 to 100 nM | CC(C)(Oc1ccccc1)C(=NC#N)NC12CCC(C(N)=O)(CC1)CC2 [Example 82, 4-{[N-cyano-2-methyl-2-phenoxypropanimidoyl]amino}bicyclo[2.2.2]octane-1-carboxamide]
25 | 10 to 100 nM | CC(C)(Oc1ccccc1)C(=NC#N)NC12CCC(C(F)F)(CC1)CC2 [Example 86, N-cyano-N-[4-(difluoromethyl)bicyclo[2.2.2]oct-1-yl]-2-methyl-2-phenoxypropanimidamide]
